From article PMC9469095, “Toolkit of Approaches To Support Target-Focused Drug Discovery for Plasmodium falciparum Lysyl tRNA Synthetase” (ACS Infectious Diseases, 2022) come the findings set out here.

For assay [1], the target named is T1, PfKRS (cytosolic lysyl tRNA synthetase) (Plasmodium falciparum, UniProt Q8IDJ8).
T1 construct: gene PF3D7_1350100
The assay is described as follows: biochemical. Details: PfKRS lysine activation, pyrophosphate release with BIOMOL Green absorbance at 650 nm. To be noted: read-out: PfKRS pIC50 (converted). The method, then:
(§1) PfKRS assay wells contained PfKRS assay buffer (100 mM Hepes; pH 7.4, 100 mM NaCl, 20 mM MgCl2, 0.01% (v/v) Igepal and 1 mM DTT) plus 20 nM PfKRS, 200 μM ATP, 400 μM L-lysine, and 0.5 U/mL pyrophosphatase. HsKRS reactions contained HsKRS assay buffer (30 mM Tris; pH 8, 140 mM NaCl, 40 mM MgCl2, 30 mM KCl, 0.01% (v/v) Brij and 1 mM DTT) plus 400 nM HsKRS, 3.5 μM ATP, 6 μM L-lysine, and 0.5 U/mL pyrophosphatase. Assays were performed by adding 25 μL of assay buffer with enzyme to all assay wells, before the reaction was initiated with the addition of a 25 μL substrate mixture containing L-lysine, ATP, and pyrophosphatase (a substrate mix with L-lysine omitted was added to “no lysine” control wells on each assay plate). Following a 6 h (PfKRS) or 3 h (HsKRS) reaction at RT, the assay was stopped with the addition of 50 μL BIOMOL Green. The BIOMOL Green signal was allowed to develop for 30 min before the absorbance of each well was read at 650 nm using an EnVision multilabel plate reader (PerkinElmer Life Sciences) or a PheraStar plate reader (BMG). All [compound left out] dispensing steps were carried out using a Thermo Scientific WellMate dispenser (Matrix). To generate pIC50 data for hit compounds in the PfKRS or HsKRS assays, 10-point inhibitor dose–response curves were prepared in 384-well assay plates using an ECHO 550 acoustic dispenser (Labcyte). Following preparation of the inhibitor curves, assays were carried out as described above. ActivityBase from IDBS (version 8.0.5.4) was used for data processing and analysis, with percentage inhibition values determined relative to 100% inhibition (“no-lysine” control) and 0% inhibition control wells on each plate. All IC50 curve fitting was undertaken using ActivityBase XE (version 7.7.1) from IDBS. A four-parameter logistic dose–response curve was utilized (XLfit model 203) with prefit used for all four parameters.
Target sequence in this assay (Q8IDJ8 1-583): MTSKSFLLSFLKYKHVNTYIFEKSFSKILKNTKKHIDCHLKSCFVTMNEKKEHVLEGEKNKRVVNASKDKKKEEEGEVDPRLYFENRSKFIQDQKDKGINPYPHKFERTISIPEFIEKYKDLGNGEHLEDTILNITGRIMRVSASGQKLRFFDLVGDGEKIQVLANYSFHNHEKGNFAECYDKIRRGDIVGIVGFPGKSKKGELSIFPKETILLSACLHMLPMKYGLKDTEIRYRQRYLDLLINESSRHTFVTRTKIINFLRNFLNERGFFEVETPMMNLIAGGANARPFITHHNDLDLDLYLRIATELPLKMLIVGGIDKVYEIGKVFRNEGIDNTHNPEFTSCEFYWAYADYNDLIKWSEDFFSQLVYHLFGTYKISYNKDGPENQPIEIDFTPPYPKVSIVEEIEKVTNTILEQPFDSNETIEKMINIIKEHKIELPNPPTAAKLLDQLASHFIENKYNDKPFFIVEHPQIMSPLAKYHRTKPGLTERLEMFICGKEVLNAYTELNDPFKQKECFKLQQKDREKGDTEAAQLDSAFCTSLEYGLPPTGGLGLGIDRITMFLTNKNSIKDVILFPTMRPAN

Assay [2] has as its target T2, HsKRS (Homo sapiens, UniProt Q15046).
T2 construct: gene KARS1
The assay is described as follows: biochemical. Set-up: HsKRS lysine activation, pyrophosphate release with BIOMOL Green absorbance at 650 nm. The following applies: read-out: HsKRS pIC50 (converted). As to the method: as §1

The target of assay [3] is T1, PfKRS (cytosolic lysyl tRNA synthetase). The experiment in a line: isothermal thermal proteome profiling at […] °C in P. falciparum lysate. The assay is classed as cell-based.
Target sequence in this assay (Q8IDJ8 entry or part of it): as the sequence (Q8IDJ8 1-583) above

T2 sequence (Q15046 whole entry): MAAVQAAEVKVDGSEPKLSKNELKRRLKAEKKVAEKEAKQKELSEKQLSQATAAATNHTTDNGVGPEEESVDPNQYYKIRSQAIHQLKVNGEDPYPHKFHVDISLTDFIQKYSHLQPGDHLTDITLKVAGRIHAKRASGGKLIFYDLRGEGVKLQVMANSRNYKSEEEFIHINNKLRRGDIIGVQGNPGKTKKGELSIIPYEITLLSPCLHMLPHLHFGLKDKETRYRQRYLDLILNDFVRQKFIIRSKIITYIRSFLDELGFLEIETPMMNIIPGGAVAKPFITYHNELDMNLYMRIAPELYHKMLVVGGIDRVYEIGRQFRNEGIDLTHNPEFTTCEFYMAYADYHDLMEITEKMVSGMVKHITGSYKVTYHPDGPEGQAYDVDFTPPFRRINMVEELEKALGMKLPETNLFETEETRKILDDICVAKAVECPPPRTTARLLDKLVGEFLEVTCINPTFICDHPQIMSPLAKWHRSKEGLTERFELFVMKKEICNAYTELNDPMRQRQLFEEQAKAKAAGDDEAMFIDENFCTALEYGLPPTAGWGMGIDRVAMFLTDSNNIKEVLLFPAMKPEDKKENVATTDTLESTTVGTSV

Turning to `O=C(NCC1CCCCC1)c1cc(=O)c2cc(F)cc(NS(=O)(=O)c3ccccc3)c2o1` [DDD02354914], the IC50 in assay [1] is 11.7 nM; in assay [2], 6310 nM.

`[N-]=[N+]=NCCOCCOCCOCCNC(=O)c1ccc(S(=O)(=O)Nc2cc(F)cc3c(=O)cc(C(=O)NCC4CCCCC4)oc23)cc1` [linker 1]: the figures for the IC50 in assay [1] and in assay [2] were 22.4 nM and 43700 nM, respectively.

Turning to `C[C@H]1CCC[C@H](C[C@H]2Cc3cc(O)cc(O)c3C(=O)O2)O1` [cladosporin], the “isothermal thermal proteome profiling at 57 °C in P. falciparum lysate” value in assay [3] is on record as “The relative abundance of PfKRS was also significantly increased in lysates exposed to cladosporin”. In addition, the IC50 was 47.9 nM in assay [1] and over 100000 nM in assay [2].

In the case of `O=C(NCC1(O)CCC(F)(F)CC1)c1cc(=O)c2cc(F)ccc2o1` [DDD01510706], the IC50 is 240 nM in assay [1] and 20000 nM in assay [2].
